Laboratory results published in ChEMBL document CHEMBL2176977 (J Med Chem, 2012).
Activity calls are given as the source filed them. The calls are words filed in the database; no cut-off is given here.

Legend:
Rhesus monkey [1] = assay: Reduction in morphine dependence in withdrawn rhesus monkey model assessed as attenuation of withdrawal effects at 0.1 mg/kg; type: functional, organism-based; parameters: dose 0.1 mg/kg; conditions: Macaca mulatta
Rhesus monkey [2] = assay: Reduction in morphine dependence in withdrawn rhesus monkey model assessed as attenuation of withdrawal effects at 0.5 mg/kg; type: functional, organism-based; parameters: dose 0.5 mg/kg; conditions: Macaca mulatta
Mu-type opioid receptor = Mu-type opioid receptor (Cavia porcellus, UniProt P97266); assay: Agonist activity at MOR in guinea pig vas deferens; type: functional, tissue-based
[3] = biological target: Kappa-type opioid receptor (Cavia porcellus, UniProt P41144); assay: Agonist activity at KOR in guinea pig vas deferens; type: functional, tissue-based
[4] = Displacement of [3H]Cl-DPDPE from DOR in guinea pig brain membrane
[5] = Agonist activity at DOR in guinea pig vas deferens; type: functional, tissue-based; conditions: Cavia porcellus
Mus musculus = assay: Antinociceptive activity in mouse assessed as tail withdrawal latency at 100 mg/kg by 55 degC warm water test; type: functional

Kappa-type opioid receptor, sequence (P41144 whole entry): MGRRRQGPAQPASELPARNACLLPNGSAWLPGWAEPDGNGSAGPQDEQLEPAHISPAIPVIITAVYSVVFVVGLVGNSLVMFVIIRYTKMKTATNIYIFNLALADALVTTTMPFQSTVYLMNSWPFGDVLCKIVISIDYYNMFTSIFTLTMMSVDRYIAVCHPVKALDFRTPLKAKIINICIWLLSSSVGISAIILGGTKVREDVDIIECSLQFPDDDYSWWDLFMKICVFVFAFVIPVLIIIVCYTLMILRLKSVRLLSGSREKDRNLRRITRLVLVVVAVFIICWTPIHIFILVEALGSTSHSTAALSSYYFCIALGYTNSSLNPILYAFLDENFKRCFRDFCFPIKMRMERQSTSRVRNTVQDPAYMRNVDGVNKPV
Mu-type opioid receptor, sequence (P97266 whole entry): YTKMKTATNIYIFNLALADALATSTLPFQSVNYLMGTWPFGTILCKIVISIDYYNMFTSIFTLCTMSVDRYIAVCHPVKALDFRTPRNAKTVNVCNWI

COC(=O)/C=C/C(=O)N[C@@]12CCC(=O)[C@@H]3Oc4c(O)ccc5c4[C@@]31CCN(CC1CC1)[C@@H]2C5
Activity (Rhesus monkey [1]): inactive
Activity (Rhesus monkey [2]): inactive

CO[C@]12CC[C@@]3(C[C@@H]1[C@](C)(O)C(C)(C)C)[C@H]1Cc4ccc(O)c5c4[C@@]3(CCN1CC1CC1)[C@H]2O5 [BUPRENORPHINE]
EC50 (Mu-type opioid receptor): 0.021 µM
EC50 [3]: 0.021 µM

CO[C@@]12CC[C@@]3(C[C@@H]1[C@](C)(O)C(C)(C)C)[C@H]1Cc4ccc(O)c5c4[C@@]3(CCN1CC1CC1)[C@H]2O5 [BUPRENORPHINE]
Ki [4]: 0.0016 µM
EC50 [5]: 0.021 µM

CN1CC[C@]23c4c5ccc(O)c4O[C@H]2[C@@H](O)C=C[C@H]3[C@H]1C5 [MORPHINE]
Activity (Mus musculus): 100%
